Source: patent publication US8637544B2, “Neurite formation promoter” (Senju Pharmaceutical Co., Ltd., priority 2007, dated 2014)

Tests used:
[1] = test system: cultured rabbit trigeminal nerve cells; assay: Promoting effect on neuritogenesis in cultured rabbit trigeminal nerve cells (Test Example 1); type: cell-based; conditions: 0.1 nM (0.026 ng/mL), 48 h culture after addition; mean±SD, N=5; control 29.5±8.7%
Source text: (§1) Japanese White rabbits (4 days old, male) purchased from Oriental Yeast Co., Ltd. were used.
N-(1-acetylpiperidin-4-yl)-4-fluorobenzamide (hereinafter referred to as Compound A) was used.
Rabbit trigeminal nerve cells were isolated according to the report of Chan et al. (Kwan Y. Chan and Richard H. Haschke. Exp. Eye Res. 41: 687-699, 1985). Specifically, a rabbit underwent cardiac perfusion with physiological saline under anesthesia with pentobarbital sodium injection (Dainippon Sumitomo Pharma), after which the trigeminal ganglia thereof were cut out. […]
After the 48 hours of cultivation following the addition, the rabbit trigeminal nerve cells were immersed and fixed in 10% neutrally buffered formaldehyde solution at room temperature for 20 minutes. The specimens fixed were fluorescently stained using the anti-neurofilament 200 antibody (Sigma-Aldrich), which specifically recognizes neurofilaments constituting nerve cell bodies and neurites, and the cells stained were examined under a fluorescence microscope (Olympus). Stained cell were incorporated as images from the fluorescence microscope into a computer.
To evaluate the degree of neuritogenesis in the cultured rabbit trigeminal nerve cells, cell body diameters and neurite lengths were measured on the computer-captured stained cell images using image analysis software (Image-Pro Plus Ver. 4.5.1, Media Cybernetics). […]

[2] = test system: rabbit retinal nerve cells; assay: Promoting effect on neuritogenesis in rabbit retinal cells (Test Example 2); type: cell-based; conditions: 0.1 nM (0.026 ng/mL), 48 h culture after addition; FIG. 2
Procedure: as §1
A rabbit underwent cardiac perfusion with physiological saline under anesthesia with pentobarbital sodium injection (Dainippon Sumitomo Pharma), after which the eyeballs were extirpated and the retinas were isolated. The retinas isolated were placed in a papain solution (1 mg/mL, Sigma-Aldrich Japan K.K.) suspended in Hanks' balanced salt solution (HBSS, Invitrogen), and subjected to enzymatic digestion at 37° C. for 30 minutes. Thereafter, Leibovitz's L-15 Medium (L-15, Invitrogen) was used to prepare reagents. After the suspension was allowed to stand, the supernatant was discarded, 3 mL of a trypsin inhibitor solution (2 mg/mL trypsin inhibitor, 0.004% DNase and 1 mg/mL Bovine Serum Albumin dissolved in L-15, pH 7.4) was added, and pipetting was performed. After the solution was allowed to stand, the supernatant was discarded, another 3 mL of the trypsin inhibitor solution was added, pipetting was performed, and this operation was once again repeated; centrifugation was performed at 120×g for 5 minutes, and the supernatant was removed. […]

[3] = test system: cultured rabbit trigeminal nerve cells; assay: Promoting effect on neuritogenesis in cultured rabbit trigeminal nerve cells, concentration series (Test Example 3); type: cell-based; conditions: for Ratio (%) of neuritogenesis cells: 48 h, mean±SD, control 30.4 ± 19.5
Source text: as §1
Rabbit trigeminal nerve cells were isolated according to the report by Chan et al. (Kwan Y. Chan and Richard H. Haschke. Exp. Eye Res. 41: 687-699, 1985). Specifically, a rabbit underwent cardiac perfusion with physiological saline under anesthesia with pentobarbital sodium injection (Dainippon Sumitomo Pharma), after which the trigeminal ganglia were cut out. The trigeminal ganglia cut out were washed with Hanks' balanced salt solution (HBSS, Invitrogen), and thereafter treated with 300 μg/mL collagenase-dispase (Roche) at 37° C. for 40 minutes; centrifugation was performed at 120×g for 5 minutes, and the cells were collected. The enzyme reaction was stopped with Neurobasal (registered trademark, Invitrogen) supplemented with EDTA at a final concentration of 0.1%, and the cells were suspended in culture medium, after which centrifugation was performed at 120×g for 5 minutes, and trigeminal nerve cells were prepared.
The cells prepared were seeded in a 8-well chamber slide coated with polylysine/laminin (Falcon) at about 3×10^3 cells/well; after the seeding, the cells were cultured for 24 hours. After the 24 hours, each of Compound A (final concentration: 0.001 nM (0.00026 ng/mL), 0.1 nM (0.026 ng/ml), 10 nM (2.6 ng/mL), 1000 nM (260 ng/mL)) and NGF (final concentration 1 μg/ml) as a positive control or PBS as a control, was added to the culture medium. After the addition, the cells were further cultured for 48 hours.
The culture medium used was a Neurobasal containing the B27 supplement (Invitrogen) (final concentration 2% (v/v)), L-glutamine (Invitrogen) (final concentration 1 mM) and cytosine-1-β-D(+)arabinofuranoside (final concentration 10 μM). Culturing conditions were set at a carbon dioxide concentration of 5%, an air concentration of 95%, a humidity of 100%, and a temperature of 37° C.
After the 48 hours of cultivation, the rabbit trigeminal nerve cells were immersed and fixed in 10% neutrally buffered formaldehyde solution at room temperature for 20 minutes. The specimens fixed were fluorescently stained using the anti-neurofilament 200 antibody (Sigma-Aldrich), which specifically recognizes neurofilaments constituting nerve cell bodies and neurites, and the cells stained were examined under a fluorescence microscope (Olympus). Stained cells were incorporated as images from the fluorescence microscope into a computer.
To evaluate the degree of neuritogenesis in the cultured rabbit trigeminal nerve cells, cell body diameters and neurite lengths were measured on the computer-captured stained cell images using image analysis software (Image-Pro Plus Ver. 4.5.1, Media Cybernetics). Cells having a neurite with a length of not less than twice the diameter of the cell body were regarded as neuritogenesis cells, and the ratio (%) of the cells to the total cell count was calculated (Otori Y, Wei J Y, Barnstable C J. Invest. Opthalmol V is Sci (1998) 39, 972-981).

[4] = test system: corneal sensitivity after corneal flap creation; assay: Improving effect on rabbit corneal hyposensitivity after corneal flap creation (Test Example 4); type: in vivo; conditions: 1 nM ophthalmic solution, instillation 50 μL four times a day for 6 weeks
Procedure: Japanese White rabbits weighing 2.5 to 3.0 kg purchased from KITAYAMA LABES were used. From arrival to the day of test completion, the animals were kept in a breeding room set at a room temperature of 23±3° C., a humidity of 55±10%, and 12-hour lighting (lighted on at 8:00, lighted off at 20:00) at one animal per cage. Each animal was fed up to 100 to 120 g of a solid food (Labo R Stock, Nosan Corporation) a day, and had free access to tap water.
Compound A was used as a test substance. The test substance was dissolved in the base shown below to obtain a concentration of 1 nM (0.00000026%) to yield an ophthalmic solution. For a control group, the following base, free of the test substance, was administered by instillation.
3. Test Procedures 1) Grouping
On the day before flap creation, the animals were macroscopically examined for the ocular surface and examined for fluorescein-stained spots in the cornea; rabbits with no abnormalities observed therein were selected, and initial values of corneal sensitivity were measured using the Cochet-Bonnet aesthesiometer (manufactured by Luneau). […]
One week, 2 weeks, 4 weeks or 6 weeks after surgery, corneal sensitivity was measured using the Cochet-Bonnet aesthesiometer. […]

**Q.** Which results are given for `CC(=O)N1CCC(NC(=O)c2ccc(F)cc2)CC1` [Compound A, N-(1-acetylpiperidin-4-yl)-4-fluorobenzamide]?
**A.** ratio of neuritogenesis cells to all cells [1]: 63.3±5.2%; neuritogenesis in retinal nerve cells stained with anti-neurofilament antibody [2]: Remarkable neuritogenesis was observed; Ratio (%) of neuritogenesis cells ([3]; 0.001 nM): 33.6 ± 16.3%; Ratio (%) of neuritogenesis cells ([3]; 0.1 nM, *p<0.05 vs control): 45.9 ± 15.1* %; Ratio (%) of neuritogenesis cells ([3]; 10 nM): 37.2 ± 16.5%; Ratio (%) of neuritogenesis cells ([3]; 1000 nM): 37.0 ± 20.0%; optimum concentration for promoting effect on neuritogenesis in trigeminal nerve cells ([3]; tested at 0.001, 0.1, 10, 1000 nM): 0.1 nM; time when a sense was observed for the first time after corneal flap creation (first measured value of 5 mm filament length or more) ([4]; average, vehicle group 5.5 weeks): 4.1 weeks; recovery from decreased corneal sensitivity after flap creation (Cochet-Bonnet aesthesiometer) ([4]; versus vehicle instillation group, FIG. 3): accelerated recovery from decreased corneal sensitivity after flap creation
